# Legend:
# [1] = Open-label multiple-dose escalation pharmacokinetic study in fasted or fed healthy subjects (Example 7 B); type: in vivo, human
# Method: B. A second open-label, non-randomized pharmacokinetic study was conducted in healthy subjects. Fasted (cohort 1; n=19) or fed state (cohort 2, n=18) subjects received a modified-release tablet formulation of Compound 1 in a dose escalation sequence over 25 days ([…], depending upon individual subject tolerability, […]).
# Two cohorts were enrolled to ensure data in 12 evaluable subjects per cohort. […]
# PAH patients = test: 22-week randomized, double-blind, placebo-controlled study (Example 8); type: in vivo, human
# Method: A 22-week randomized, double-blind, placebo-controlled study with a dose titration period of up to 9 weeks was conducted. Sixty-one patients were randomized 2:1 Compound 1 to placebo. Right Heart Catheterization (RHC) measurements were obtained prior to study Day 1 of the dose titration period and at Week 22. The following values were obtained and recorded: pulmonary artery pressure (PAP) (systolic, diastolic, and mean), heart rate (HR), right atrial pressure (RAP), pulmonary capillary wedge pressure (PCWP) right ventricular pressure (RVP) and cardiac output (CO), pulmonary vascular resistance (PVR), arterial and mixed venous oxygen saturation […] (if applicable). Systemic vascular resistance (SVR) was estimated from blood pressure measurements. The 6-minute walk test (6MWD) was conducted according to the modified guidelines issued by the American Thoracic Society. See Am J Respir Crit Care Med 166:111-117, 2002.
# Primary efficacy endpoints for the study were: a) change from baseline in PVR after 22 weeks of treatment, and b) change from baseline in 6MWD after 22 weeks of treatment.
# Compound 1 was administered as a capsule in 0.01, 0.02, 0.03, 0.04, and 0.10 mg dose strengths. The formulation was supplied as a liquid-filled, size 4, hard-gelatin capsule containing Compound 1, polyoxyl 40 hydrogenated castor oil (Kolliphor® RH40) NF, butylated hydroxytoluene (BHT)NF, and colloidal silicon dioxide NF.
# The starting dose of Compound 1 was 0.01 mg twice daily. The dose of Compound 1 was titrated according to patient tolerability. If the initial dose was tolerated (0.01 mg twice daily), then the dose was increased once a week in the following fashion: 0.02 mg twice daily, 0.03 mg twice daily, 0.04 mg twice daily, 0.06 mg twice daily, 0.08 mg, 0.1 mg twice daily, 0.2 mg twice daily and 0.3 mg twice daily. The dose was optionally escalated to a possible maximum total daily dose of 0.6 mg (0.3 mg twice daily), pending tolerability. […] Compound 1 daily maintenance doses were titrated as high as 0.6 mg, and the most common dose was 0.4 mg.
# Subjects received concomitant oral disease-specific PAH therapy only if the dose remained stable for at least 3 months prior to the start of screening. This therapy consisted of the following: ERA and/or an agent acting on the NO pathway including the following: a PDE-5 inhibitor and a sGC stimulator. Subjects were instructed to continue the same dose and regimen of these medications for the duration of the study.
# Plasma half-life = type: in vivo
# [2] = modified-release tablet once daily
structure (smiles),measurement,setting,value
"O=C(O)COC[C@H]1CC[C@H](COC(=O)N(c2ccccc2)c2ccc(Cl)cc2)CC1 [Compound 1, 2-(((1r,4r)-4-(((4-chlorophenyl)(phenyl)carbamoyloxy)methyl)cyclohexyl)methoxy)acetic acid]",accumulation index (AUC(0-24)),"[1]; 5 days of dosing at 0.60 mg, both fed and fasted state",approximately 2.1 fold
same,exposure in fed vs fasted state,[1]; after single administration and at steady state,similar
same,"differences in AUC(0-24) at steady state, female vs male subjects",[1]; [2],did not indicate a significant increase
same,increase of Cmax at steady state in female vs male subjects,[1]; [2],greater than 42%
same,mean plasma exposure measures in females compared to males,[1]; [2],Somewhat higher
same,plasma exposure measures vs dose,"[1]; modified-release tablet once daily, 0.06 to 0.3 mg",Dose-dependent
same,peak-trough fluctuation,"[1]; modified-release tablet once daily, across dose levels",low
same,effect of food on plasma exposure,"[1]; modified-release tablet once daily, fed vs fasted, across dose levels",little effect of food
same,Tmax in the fed state,"[1]; modified-release tablet, fed vs fasted",delayed
same,correlation between plasma levels and improvements in PVR,"PAH patients; 22-week study period, p=0.004 (FIG. 17)",significant correlation
same,increase of least-squares mean 6MWD,"PAH patients; 22 weeks, not significantly different from placebo",36.2 m
same,adverse events,"PAH patients; PAH patients, 22-week study",consistent with other prostacyclin treatments for the management of PAH
same,mean reduction in BNP from baseline to Week 22 versus placebo,PAH patients; difference not significantly different,numerically greater
same,mean pre-dose and 4 hours post-dose plasma concentrations,PAH patients; during the 9-week dose titration period (FIG. 15),continued to rise
same,decrease of PVR from baseline to Week 22,"PAH patients; immediate-release capsule twice daily, titrated up to 0.6 mg total daily dose, p=0.02 vs placebo",163.9 dyn·s·cm^−5
same,correlation between PVR percentage change and dose,PAH patients; in vivo,no significant correlation
same,correlation between plasma levels and improvements in 6MWD,PAH patients; p=0.0037 (FIG. 18),significant correlation
same,correlation between plasma levels and improvements in BNP,PAH patients; p=0.047 (FIG. 19),significant correlation
same,mean steady-state pre-dose and 4-hours post-dose plasma concentrations,PAH patients; throughout the 13-week maintenance period (FIG. 15),maintained
same,half-life,Plasma half-life,~24 h

# From patent US12433865B2, “Compositions comprising PGI2-receptor agonists and processes for the preparation thereof” (Arena Pharmaceuticals, Inc., priority 2018, dated 2025)
